Our source for the IC50 values is patent US8071586B2, “Heterocyclyl compounds” (Hoffmann-La Roche Inc., priority 2008, dated 2011).

Broadly, the pIC50 is −log10 of the IC50, conventionally taken in molar units.

The target of this assay is T1, human chemokine receptor 2 isoform B (CCR2) (Homo sapiens, UniProt P41597).
T1 sequence (P41597 1-360 isoform P41597-2): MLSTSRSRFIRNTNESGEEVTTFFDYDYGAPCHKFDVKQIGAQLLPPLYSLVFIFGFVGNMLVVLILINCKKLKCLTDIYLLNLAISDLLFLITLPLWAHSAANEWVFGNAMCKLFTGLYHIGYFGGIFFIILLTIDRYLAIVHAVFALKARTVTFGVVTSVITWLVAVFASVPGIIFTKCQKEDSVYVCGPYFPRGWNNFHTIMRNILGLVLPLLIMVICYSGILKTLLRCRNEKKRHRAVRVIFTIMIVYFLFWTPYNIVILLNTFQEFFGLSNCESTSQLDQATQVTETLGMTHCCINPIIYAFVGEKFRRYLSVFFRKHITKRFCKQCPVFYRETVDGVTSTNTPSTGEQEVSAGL
The experiment in a line: Calcium mobilization assay (FLIPR, MCP-1 stimulated CHOK1-CCR2B-A5 cells). The assay is classed as cell-based. To be noted: Ca mobilisation assay, CCR2 antagonist activity, inhibition of MCP-1 induced calcium increase. The protocol: Calcium Mobilization Assay
CHOK1-CCR2B-A5 cells (from Euroscreen) stably overexpressing the human chemokine receptor 2 isoform B were cultured in Nutrient Hams F12 medium supplemented with 5% FBS, 100 U/ml penicillin, 100 μg/ml streptomycin, 400 μg/ml G418 and 5 μg/ml puromycin.
For the assay cells were grown overnight in 384-well black clear flat bottom polystyrene plates (Costar) at 37° C. at 5% CO2. After washing with DMEM, 20 mM Hepes, 2.5 mM probenecid, 0.1% BSA (DMEM assay buffer) cells were loaded with 4 μM Fluo-4 in the same DMEM assay buffer for 2 hours at 30° C. Excess dye was removed and cells were washed with DMEM assay buffer. 384-well compound plates were prepared with DMEM assay buffer/0.5% DMSO with or without various concentrations of test compounds. Usually compounds were tested for agonist and antagonist activity.
Test compounds were added to the assay plate and agonist activity was monitored as fluorescence for 80 seconds with a FLIPR (488 nm excitation; 510-570 nm emission; Molecular Devices). After 20-30 min. of incubation at 30° C., […] MCP-1 (R&D; Roche) was added and fluorescence was monitored again for 80 seconds. Increases in intracellular calcium are reported as maximum fluorescence after agonist exposure minus basal fluorescence before exposure. Antagonist activity is indicated as inhibitor concentration required for 50% inhibition of specific calcium increases.

pIC50: −log10 of the molar value.

In the case of `C[C@H]1C(=O)N(CCCN2CCCCC2)CCN1C(=O)Nc1cccc(-c2ccccc2)c1` [Example 43, (S)-2-Methyl-3-oxo-4-(3-piperidin-1-yl-propyl)-piperazine-1-carboxylic acid biphenyl-3-ylamide], the pIC50 is 6.21.
The same measure for `C[C@H]1C(=O)N(CCCN2CCC3(CC3)[C@H](O)C2)CCN1C(=O)Nc1ccc(Cl)c(Cl)c1` [Example 45, (S)-4-[3-((S)-4-Hydroxy-6-aza-spiro[2.5]oct-6-yl)-propyl]-2-methyl-3-oxo-piperazine-1-carboxylic acid (3,4-dichloro-phenyl)-amide]: 8.70; for `C[C@H]1C[C@H](O)CN(CCCN2CCN(C(=O)Nc3ccc(Cl)c(Cl)c3)[C@@H](C)C2=O)C1` [Example 46, (S)-4-[3-((3S,5S)-3-Hydroxy-5-methyl-piperidin-1-yl)-propyl]-2-methyl-3-oxo-piperazine-1-carboxylic acid (3,4-dichloro-phenyl)-amide]: 8.15; for `C[C@H]1CCN(CCCN2CCN(C(=O)Nc3ccc(Cl)c(Cl)c3)[C@@H](C)C2=O)C[C@H]1O` [Example 47, (S)-4-[3-((3S,4S)-3-Hydroxy-4-methyl-piperidin-1-yl)-propyl]-2-methyl-3-oxo-piperazine-1-carboxylic acid (3,4-dichloro-phenyl)-amide]: 8.15.
Regarding `C[C@H]1C(=O)N(CCCN2CCC[C@@H](O)C2)CCN1C(=O)Nc1ccc(Cl)c(Cl)c1` [Example 48, (S)-4-[3-((R)-3-Hydroxy-piperidin-1-yl)-propyl]-2-methyl-3-oxo-piperazine-1-carboxylic acid (3,4-dichloro-phenyl)-amide], the pIC50 was 6.43.
The figure for `C[C@H]1C(=O)N(CCCN2CCC(O)CC2)CCN1C(=O)Nc1ccc(Cl)c(Cl)c1` [Example 49, (S)-4-[3-(4-Hydroxy-piperidin-1-yl)-propyl]-2-methyl-3-oxo-piperazine-1-carboxylic acid (3,4-dichloro-phenyl)-amide] is 6.80.
As for `C[C@H]1C(=O)N(CCCN2CCC[C@H]2CO)CCN1C(=O)Nc1ccc(Cl)c(Cl)c1` [Example 50, (S)-4-[3-((S)-2-Hydroxymethyl-pyrrolidin-1-yl)-propyl]-2-methyl-3-oxo-piperazine-1-carboxylic acid (3,4-dichloro-phenyl)-amide], the pIC50 was 6.92.
The same measure for `O=C(NCc1ccc(Cl)c(Cl)c1)N1CCC(=O)N([C@H](CO)CCN2CCC3(CC3)[C@H](O)C2)CC1` [Example 51, 4-[(S)-3-((S)-4-hydroxy-6-aza-spiro[2.5]oct-6-yl)-1-hydroxymethyl-propyl]-5-oxo-[1,4]diazepane-1-carboxylic acid 3,4-dichloro-benzylamide]: 6.60; for `O=C(NCc1ccc(Cl)c(Cl)c1)OC[C@H](CCN1CCC2(CC2)[C@H](O)C1)N1CCN(C(=O)NCc2ccc(Cl)c(Cl)c2)CCC1=O` [Example 52, (3,4-dichloro-benzyl)-carbamic acid (S)-2-[4-(3,4-dichloro-benzylcarbamoyl)-7-oxo-[1,4]diazepan-1-yl]-4-((S)-4-hydroxy-6-aza-spiro[2.5]oct-6-yl)-butyl ester]: 6.02; for `O=C(Nc1ccc(Cl)c(Cl)c1)N1CCC(=O)N([C@H](CO)CCN2CCC3(CC3)[C@H](O)C2)CC1` [Example 53, 4-[(S)-3-((S)-4-Hydroxy-6-aza-spiro[2.5]oct-6-yl)-1-hydroxymethyl-propyl]-5-oxo-[1,4]diazepane-1-carboxylic acid (3,4-dichloro-phenyl)-amide]: 9.00.
The figure for `O=C1CCN(C(=O)Nc2ccc(Cl)c(Cl)c2)CCN1CCCN1CCC2(CC2)[C@H](O)C1` [Example 54, 4-[3-((S)-4-Hydroxy-6-aza-spiro[2.5]oct-6-yl)-propyl]-5-oxo-[1,4]diazepane-1-carboxylic acid (3,4-dichloro-phenyl)-amide] is 8.22.
The figure for `COCC(CCN1CCC2(CC2)[C@H](O)C1)N1CCN(C(=O)Nc2ccc(Cl)c(Cl)c2)CCC1=O` (stereo partly drawn) [Example 55, (R,S)-4-[3-((S)-4-Hydroxy-6-aza-spiro[2.5]oct-6-yl)-1-methoxymethyl-propyl]-5-oxo-[1,4]diazepane-1-carboxylic acid (3,4-dichloro-phenyl)-amide] is 8.40; for `COC[C@H](CCN1CCC2(CC2)[C@H](O)C1)N1CCN(C(=O)Nc2ccc(Cl)c(Cl)c2)CCC1=O` [Example 56, 4-[(S)-3-((S)-4-hydroxy-6-aza-spiro[2.5]oct-6-yl)-1-methoxymethyl-propyl]-5-oxo-[1,4]diazepane-1-carboxylic acid (3,4-dichloro-phenyl)-amide] it is 8.70.
As to `COC[C@@H](CCN1CCC2(CC2)[C@H](O)C1)N1CCN(C(=O)Nc2ccc(Cl)c(Cl)c2)CCC1=O` [Example 57, 4-[(R)-3-((S)-4-hydroxy-6-aza-spiro[2.5]oct-6-yl)-1-methoxymethyl-propyl]-5-oxo-[1,4]diazepane-1-carboxylic acid (3,4-dichloro-phenyl)-amide], the pIC50 is 6.62.
For the compound `C[C@@H]1CN(CCCN2CCC3(CC3)[C@H](O)C2)C(=O)CCN1C(=O)Nc1ccc(Cl)c(Cl)c1` [Example 58, (R)-4-[3-((S)-4-Hydroxy-6-aza-spiro[2.5]oct-6-yl)-propyl]-2-methyl-5-oxo-[1,4]diazepane-1-carboxylic acid (3,4-dichloro-phenyl)-amide], the pIC50 is 8.52.
Turning to `C[C@@H]1CN(CCCN2CCC3(CC3)[C@H](O)C2)C(=O)CCN1C(=O)Nc1cccc(Cl)c1` [Example 60, (R)-4-[3-((S)-4-Hydroxy-6-aza-spiro[2.5]oct-6-yl)-propyl]-2-methyl-5-oxo-[1,4]diazepane-1-carboxylic acid (3-chloro-phenyl)-amide], the pIC50 is 7.22.
The figure for `Cc1ccc(NC(=O)N2CCC(=O)N(CCCN3CCC4(CC4)[C@H](O)C3)C[C@H]2C)cc1C` [Example 61, (R)-4-[3-((S)-4-Hydroxy-6-aza-spiro[2.5]oct-6-yl)-propyl]-2-methyl-5-oxo-[1,4]diazepane-1-carboxylic acid (3,4-dimethyl-phenyl)-amide] is 6.68; for `COC(=O)[C@H](CCN1CCC2(CC2)[C@H](O)C1)N1C[C@@H](C)N(C(=O)Nc2cccc(Cl)c2)CCC1=O` [Example 62, (S)-2-[(R)-4-(3-Chloro-phenylcarbamoyl)-3-methyl-7-oxo-[1,4]diazepan-1-yl]-4-((S)-4-hydroxy-6-aza-spiro[2.5]oct-6-yl)-butyric acid methyl ester] it is 7.52.
`C[C@H]1C(=O)N(CCCN2CCC3(CC3)[C@H](O)C2)CCN1C(=O)Nc1cccc(Cl)c1` [Example 69, (S)-4-[3-((S)-4-Hydroxy-6-aza-spiro[2.5]oct-6-yl)-propyl]-2-methyl-3-oxo-piperazine-1-carboxylic acid (3-chloro-phenyl)-amide]: the pIC50 was 8.30.
The figure for `C[C@H]1C(=O)N(CCCN2CCC3(CC3)[C@H](O)C2)CCN1C(=O)Nc1ccc(F)c(Cl)c1` [Example 70, (S)-4-[3-((S)-4-Hydroxy-6-aza-spiro[2.5]oct-6-yl)-propyl]-2-methyl-3-oxo-piperazine-1-carboxylic acid (3-chloro-4-fluoro-phenyl)-amide] is 8.40; for `C[C@H]1C(=O)N(CCCN2CCC3(CC3)[C@H](O)C2)CCN1C(=S)Nc1ccc(Cl)c(Cl)c1` [Example 71, (S)-4-[3-((S)-4-Hydroxy-6-aza-spiro[2.5]oct-6-yl)-propyl]-2-methyl-3-oxo-piperazine-1-carbothioic acid (3,4-dichloro-phenyl)-amide] it is 8.70.
As for `C[C@H]1C(=O)N(CCCN2CCC3(CC3)[C@H](O)C2)CCN1C(=O)Nc1ccc(Cl)cc1` [Example 72, (S)-4-[3-((S)-4-Hydroxy-6-aza-spiro[2.5]oct-6-yl)-propyl]-2-methyl-3-oxo-piperazine-1-carboxylic acid (4-chloro-phenyl)-amide], the pIC50 is 8.10.
The figure for `C[C@H]1C(=O)N(CCCN2CCC3(CC3)[C@H](O)C2)CCN1C(=O)Nc1cccc(F)c1` [Example 73, (S)-4-[3-((S)-4-Hydroxy-6-aza-spiro[2.5]oct-6-yl)-propyl]-2-methyl-3-oxo-piperazine-1-carboxylic acid (3-fluoro-phenyl)-amide] is 7.68; for `C[C@H]1C(=O)N(CCCN2CCC3(CC3)[C@H](O)C2)CCN1C(=O)Nc1ccccc1` [Example 74, (S)-4-[3-((S)-4-Hydroxy-6-aza-spiro[2.5]oct-6-yl)-propyl]-2-methyl-3-oxo-piperazine-1-carboxylic acid phenylamide] it is 7.19.
